Measured values reported in ChEMBL document CHEMBL1147339, “Combination effects of antifungal nagilactones against Candida albicans and two other fungi with phenylpropanoids” (1993).
Converted amounts (≈) assume the structure as drawn. The source made the active and inactive calls. No cut-off for these calls is given here.

Legend:
Saccharomyces cerevisiae [1] = test: Antifungal activity against Saccharomyces cerevisiae ATCC 7754 after 2 days by broth dilution method; assay type: functional; conditions: ATCC 7754, 48 h
Malassezia furfur [2] = test: Antifungal activity against Pityrosporum ovale ATCC 14521 after 3 days by broth dilution method; assay type: functional; conditions: ATCC 14521, 72 h
Candida albicans [3] = test: Antifungal activity against Candida albicans ATCC 18804 after 2 days by broth dilution method; assay type: functional; conditions: ATCC 18804, 48 h
Pseudomonas aeruginosa = test: Antimicrobial activity against Pseudomonas aeruginosa ATCC 10145 up to 800 ug/mL after 2 days by broth dilution method; assay type: functional, organism-based
Staphylococcus aureus = test: Antimicrobial activity against Staphylococcus aureus ATCC 12598 up to 800 ug/mL after 2 days by broth dilution method; assay type: functional, organism-based
Streptococcus mutans = test: Antimicrobial activity against Streptococcus mutans ATCC 25175 up to 800 ug/mL after 2 days by broth dilution method; assay type: functional, organism-based
[4] = system: Corynebacterium ammoniagenes; test: Antimicrobial activity against Brevibacterium ammoniagenes ATCC 6872 up to 800 ug/mL after 2 days by broth dilution method; assay type: functional, organism-based
Escherichia coli = test: Antimicrobial activity against Escherichia coli ATCC 9637 up to 800 ug/mL after 2 days by broth dilution method; assay type: functional, organism-based
Saccharomyces cerevisiae [5] = test: Antifungal activity against Saccharomyces cerevisiae ATCC 7754 at 800 ug/mL after 2 days by broth dilution method; assay type: functional; conditions: ATCC 7754, 48 h
Cutibacterium acnes = test: Antimicrobial activity against Propionibacterium acnes ATCC 11827 up to 800 ug/mL after 2 days by broth dilution method; assay type: functional, organism-based
Penicillium chrysogenum = test: Antimicrobial activity against Penicillium chrysogenum ATCC 10106 up to 800 ug/mL after 5 days by broth dilution method; assay type: functional, organism-based
Klebsiella aerogenes = test: Antimicrobial activity against Enterobacter aerogenes ATCC 13048 up to 800 ug/mL after 2 days by broth dilution method; assay type: functional, organism-based
Candida albicans [6] = test: Antifungal activity against Candida albicans ATCC 18804 at 800 ug/mL after 2 days by broth dilution method; assay type: functional, organism-based
Saccharomyces cerevisiae [7] = test: Antifungal activity against Saccharomyces cerevisiae ATCC 7754 at 1600 ug/mL after 2 days by broth dilution method; assay type: functional, organism-based
Malassezia furfur [8] = test: Antifungal activity against Pityrosporum ovale ATCC 14521 at 800 ug/mL after 3 days by broth dilution method; assay type: functional, organism-based
Bacillus subtilis = test: Antimicrobial activity against Bacillus subtilis ATCC 9372 up to 800 ug/mL after 2 days by broth dilution method; assay type: functional; conditions: ATCC 9372, 48 h

## C/C=C/c1ccccc1
Saccharomyces cerevisiae [1]
  MIC: 400 µg/mL (≈ 3380 µM)
Malassezia furfur [2]
  MIC: > 800 µg/mL
Candida albicans [3]
  MIC: 400 µg/mL (≈ 3380 µM)

## CC(C)[C@H]1OC(=O)C=C2C1=C[C@H]1OC(=O)[C@@]3(C)C[C@H](O)C[C@@]2(C)[C@@H]13
Saccharomyces cerevisiae [1]
  MIC: 800 µg/mL (≈ 2410 µM)
Pseudomonas aeruginosa
  Activity: inactive
Staphylococcus aureus
  Activity: inactive
Streptococcus mutans
  Activity: inactive
[4]
  Activity: inactive
Escherichia coli
  Activity: inactive
Saccharomyces cerevisiae [5]
  MIC: 800 µg/mL (≈ 2410 µM)
Cutibacterium acnes
  Activity: inactive
Penicillium chrysogenum
  Activity: inactive
Klebsiella aerogenes
  Activity: inactive

## COc1ccc(/C=C/C(=O)O)cc1 [4-METHOXYCINNAMIC ACID]
Saccharomyces cerevisiae [1]
  MIC: 100 µg/mL (≈ 561 µM)
Malassezia furfur [2]
  MIC: > 800 µg/mL
Candida albicans [3]
  MIC: 200 µg/mL (≈ 1120 µM)

## C=CCc1ccccc1 [ALLYLBENZENE]
Saccharomyces cerevisiae [1]
  MIC: 400 µg/mL (≈ 3380 µM)
Malassezia furfur [2]
  MIC: > 800 µg/mL
Candida albicans [3]
  MIC: 400 µg/mL (≈ 3380 µM)

## C/C=C/c1ccc(OC)cc1 [ANETHOLE]
Saccharomyces cerevisiae [1]
  MIC: 200 µg/mL (≈ 1350 µM)
Malassezia furfur [2]
  MIC: 200 µg/mL (≈ 1350 µM)
Candida albicans [3]
  MIC: 200 µg/mL (≈ 1350 µM)

## COc1ccc(O)c(C(C)(C)C)c1.COc1ccc(O)cc1C(C)(C)C [BUTYLATED HYDROXYANISOLE]
Saccharomyces cerevisiae [1]
  MIC: 200 µg/mL
Malassezia furfur [2]
  MIC: 200 µg/mL

## C=CCc1ccc(O)c(OC)c1 [EUGENOL]
Saccharomyces cerevisiae [1]
  MIC: 800 µg/mL (≈ 4870 µM)
Malassezia furfur [2]
  MIC: 200 µg/mL (≈ 1220 µM)
Candida albicans [3]
  MIC: 800 µg/mL (≈ 4870 µM)

## C/C=C\c1ccc(O)c(OC)c1 [ISOEUGENOL]
Saccharomyces cerevisiae [1]
  MIC: 400 µg/mL (≈ 2440 µM)
Malassezia furfur [2]
  MIC: 200 µg/mL (≈ 1220 µM)
Candida albicans [3]
  MIC: 400 µg/mL (≈ 2440 µM)

## C/C=C/c1ccc2c(c1)OCO2 [ISOSAFROLE]
Saccharomyces cerevisiae [1]
  MIC: 200 µg/mL (≈ 1230 µM)
Malassezia furfur [2]
  MIC: 100 µg/mL (≈ 617 µM)
Candida albicans [3]
  MIC: 100 µg/mL (≈ 617 µM)

## C=CCc1ccc(OC)c(OC)c1 [METHYLEUGENOL]
Saccharomyces cerevisiae [1]
  MIC: 800 µg/mL (≈ 4490 µM)
Malassezia furfur [2]
  MIC: 200 µg/mL (≈ 1120 µM)
Candida albicans [3]
  MIC: 800 µg/mL (≈ 4490 µM)

## C/C=C/c1ccc(OC)c(OC)c1 [METHYLISOEUGENOL]
Saccharomyces cerevisiae [1]
  MIC: 400 µg/mL (≈ 2240 µM)
Malassezia furfur [2]
  MIC: 200 µg/mL (≈ 1120 µM)
Candida albicans [3]
  MIC: 400 µg/mL (≈ 2240 µM)

## CC(C)c1oc(=O)cc2c1[C@@H](O)[C@H]1OC(=O)[C@@]3(C)[C@@H](O)[C@H]4O[C@H]4[C@@]2(C)[C@@H]13 [NAGILACTONE C]
Saccharomyces cerevisiae [1]
  MIC: > 1600 µg/mL
Malassezia furfur [2]
  MIC: > 1600 µg/mL
Pseudomonas aeruginosa
  Activity: inactive
Staphylococcus aureus
  Activity: inactive
Streptococcus mutans
  Activity: inactive
[4]
  Activity: inactive
Candida albicans [6]
  Activity: inactive
Escherichia coli
  Activity: inactive
Saccharomyces cerevisiae [7]
  Activity: inactive
Malassezia furfur [8]
  Activity: inactive
Cutibacterium acnes
  Activity: inactive
Penicillium chrysogenum
  Activity: inactive
Klebsiella aerogenes
  Activity: inactive

## CC(C)[C@H]1OC(=O)C=C2C13O[C@@H]3[C@H]1OC(=O)[C@@]3(C)[C@@H](O)CC[C@@]2(C)[C@@H]13 (some centres not stated) [NAGILACTONE E]
Bacillus subtilis
  MIC: 50 µg/mL (≈ 144 µM)
Saccharomyces cerevisiae [1]
  MIC: 100 µg/mL (≈ 287 µM)
Malassezia furfur [2]
  MIC: 50 µg/mL (≈ 144 µM)
Pseudomonas aeruginosa
  Activity: inactive
Staphylococcus aureus
  Activity: inactive
Streptococcus mutans
  Activity: inactive
[4]
  Activity: inactive
Escherichia coli
  Activity: inactive
Candida albicans [3]
  MIC: 800 µg/mL (≈ 2300 µM)
Cutibacterium acnes
  Activity: inactive
Penicillium chrysogenum
  Activity: inactive
Klebsiella aerogenes
  Activity: inactive

## O=C(O)c1ccc(O)cc1 [PARABEN]
Saccharomyces cerevisiae [1]
  MIC: 200 µg/mL (≈ 1450 µM)
Malassezia furfur [2]
  MIC: 100 µg/mL (≈ 724 µM)

## C=CCc1ccc2c(c1)OCO2 [SAFROLE]
Saccharomyces cerevisiae [1]
  MIC: 200 µg/mL (≈ 1230 µM)
Malassezia furfur [2]
  MIC: 200 µg/mL (≈ 1230 µM)
Candida albicans [3]
  MIC: 200 µg/mL (≈ 1230 µM)

## C/C=C/c1cc(OC)c(OC)cc1OC [TRANS-ASARONE]
Saccharomyces cerevisiae [1]
  MIC: 800 µg/mL (≈ 3840 µM)
Malassezia furfur [2]
  MIC: 200 µg/mL (≈ 960 µM)
Candida albicans [3]
  MIC: 800 µg/mL (≈ 3840 µM)
